Tests used:
Assay type in all cases: biochemical
c-RAF (h) = c-RAF (h) (Homo sapiens, UniProt P04049); assay: Kinase inhibition assay (33P-ATP, P30 filter, scintillation counting): c-RAF; conditions: 40 min; 30µM Testsubstanz (100 µM ATP); read-out: Hemmung von Kinasen in % c-RAF (h)
Method: (§1) Alle Kinasen werden auf zehnfache Arbeitskonzentration vor Anwendung in dem Essay verdünnt. Die Zusammensetzung des Verdünnungspuffers ist für jede Kinase in der nachfolgenden Tabelle angegeben.
(§2) Alle Substrate werden gelöst und auf eine Stammlösung in entsalztem Wasser verdünnt.
(§3) c-RAF (ha)(5-10 mU) in einem Endreaktionsvolumen von 25 µl wird mit 25 mM Tris pH 7.5,.0.02 mM EGTA, 0.66 mg/ml Myelin-Basisprotein, 10 mM MgAcetat und [γ-^33P-ATP] inkubiert (spezifische Aktivität etwa 50 cpm/pmol, Konzentration wie erforderlich). Die Reaktion wird durch Zugabe von Mg^2+[γ-^33P-ATP] initiiert. Nach 40-minütiger Inkubation bei Raumtemperatur wird die Reaktion durch Zugabe von 5 µl einer 3 %igen Phosphorsäurelösung gestoppt. 10 µl der Reaktion werden dann auf ein P30-Filter gegeben und dreimal jeweils 5 Minuten in 50 mM Phosphorsäure und einmal in Methanol gewaschen. Anschließend wird getrocknet und eine Szintillationszählung durchgeführt.

GSK3β (h) = GSK3β (h) (Homo sapiens, UniProt P49841); assay: Kinase inhibition assay (33P-ATP, P30 filter, scintillation counting): GSK3β; conditions: 30µM Testsubstanz (100 µM ATP); read-out: Hemmung von Kinasen in % GSK3β (h)
Chain of GSK3β (h) (P49841 whole entry): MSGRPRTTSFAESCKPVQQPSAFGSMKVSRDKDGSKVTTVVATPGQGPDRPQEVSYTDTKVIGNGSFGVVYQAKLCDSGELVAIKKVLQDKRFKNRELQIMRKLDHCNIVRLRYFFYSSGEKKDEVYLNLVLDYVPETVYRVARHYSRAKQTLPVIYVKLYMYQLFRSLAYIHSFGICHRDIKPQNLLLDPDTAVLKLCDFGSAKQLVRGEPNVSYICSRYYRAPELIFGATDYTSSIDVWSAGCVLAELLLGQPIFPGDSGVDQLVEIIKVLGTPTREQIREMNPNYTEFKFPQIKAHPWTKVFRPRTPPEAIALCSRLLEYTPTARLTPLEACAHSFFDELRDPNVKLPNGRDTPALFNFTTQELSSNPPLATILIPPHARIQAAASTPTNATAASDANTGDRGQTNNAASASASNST
Method: as §1, §2
as §3, with “GSK3β (h)(5-10mU) in” for “c-RAF (ha)(5-10 mU) in”, “mit 8” for “mit 25”, “mM MOPS” for “mM Tris”, “pH 7.0, 0.2” for “pH 7.5,.0.02”, “mM EDTA, 20 µM […](p) EDEEE (phospho GS2 Peptid),” for “mM EGTA, 0.66 mg/ml Myelin-Basisprotein,”, “etwa 500” for “etwa 50”

JNK3 (r) = JNK3 (r) (Rattus norvegicus, UniProt P49187); assay: Kinase inhibition assay: JNK3; conditions: 30µM Testsubstanz (100 µM ATP); read-out: Hemmung von Kinasen in % JNK3 (r)
Chain of JNK3 (r) (P49187 whole entry): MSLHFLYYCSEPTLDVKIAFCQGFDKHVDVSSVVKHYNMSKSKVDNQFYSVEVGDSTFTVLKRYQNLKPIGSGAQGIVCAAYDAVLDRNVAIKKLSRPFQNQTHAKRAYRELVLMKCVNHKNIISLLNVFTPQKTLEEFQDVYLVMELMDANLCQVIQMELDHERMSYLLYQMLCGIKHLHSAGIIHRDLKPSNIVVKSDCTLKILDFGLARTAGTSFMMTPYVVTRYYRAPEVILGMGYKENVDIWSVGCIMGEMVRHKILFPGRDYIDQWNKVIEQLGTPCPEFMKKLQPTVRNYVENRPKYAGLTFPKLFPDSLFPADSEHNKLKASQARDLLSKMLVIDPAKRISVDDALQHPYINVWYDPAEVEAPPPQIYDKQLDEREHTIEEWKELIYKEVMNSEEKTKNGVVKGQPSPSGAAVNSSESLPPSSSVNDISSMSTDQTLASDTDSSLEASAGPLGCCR
Text: as §1, §2

Lck (h) = Lck (h) (Homo sapiens, UniProt P06239); assay: Kinase inhibition assay (33P-ATP, P30 filter, scintillation counting): Lck; conditions: 30µM Testsubstanz (100 µM ATP); read-out: Hemmung von Kinasen in % Lck (h)
Chain of Lck (h) (P06239 whole entry): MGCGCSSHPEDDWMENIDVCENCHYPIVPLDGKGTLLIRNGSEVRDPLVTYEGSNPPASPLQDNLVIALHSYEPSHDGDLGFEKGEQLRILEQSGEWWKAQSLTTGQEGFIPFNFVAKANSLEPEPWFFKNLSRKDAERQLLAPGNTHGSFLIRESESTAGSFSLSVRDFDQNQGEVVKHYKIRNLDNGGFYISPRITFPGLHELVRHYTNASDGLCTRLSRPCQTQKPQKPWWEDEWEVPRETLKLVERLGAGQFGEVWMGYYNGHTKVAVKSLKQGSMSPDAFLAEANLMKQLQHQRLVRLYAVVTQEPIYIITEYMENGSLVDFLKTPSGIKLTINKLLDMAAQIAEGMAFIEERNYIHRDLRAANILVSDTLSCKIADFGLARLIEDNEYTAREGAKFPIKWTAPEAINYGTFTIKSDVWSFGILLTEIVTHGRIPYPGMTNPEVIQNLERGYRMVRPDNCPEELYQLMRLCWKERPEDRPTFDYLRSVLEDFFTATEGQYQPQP
Method: as §1, §2
as §3, with “Lck (h)(5-10 mU)” for “c-RAF (ha)(5-10 mU)”, “mit 50” for “mit 25”, “pH 7.5, 0.1” for “pH 7.5,.0.02”, “EGTA, 0.1 mM NaVanadate, 250 µM KVEKIGEGTYGVVYK (Cdc2 Peptid),” for “EGTA, 0.66 mg/ml Myelin-Basisprotein,”, “etwa 500” for “etwa 50”

MAPK1 (h) = MAPK1 (h) (Homo sapiens, UniProt P27361); assay: Kinase inhibition assay: MAPK1; conditions: 30µM Testsubstanz (100 µM ATP); read-out: Hemmung von Kinasen in % MAPK1 (h)
Chain of MAPK1 (h) (P27361 whole entry): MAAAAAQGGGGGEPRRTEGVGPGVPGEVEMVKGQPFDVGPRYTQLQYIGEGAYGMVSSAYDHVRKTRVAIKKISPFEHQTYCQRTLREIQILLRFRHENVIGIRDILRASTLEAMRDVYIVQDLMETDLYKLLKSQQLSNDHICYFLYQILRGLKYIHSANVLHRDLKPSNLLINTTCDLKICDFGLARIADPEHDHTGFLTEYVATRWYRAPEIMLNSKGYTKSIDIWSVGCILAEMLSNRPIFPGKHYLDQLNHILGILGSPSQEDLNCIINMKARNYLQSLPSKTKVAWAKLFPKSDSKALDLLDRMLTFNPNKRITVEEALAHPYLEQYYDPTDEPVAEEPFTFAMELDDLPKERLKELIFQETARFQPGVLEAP
Text: as §1, §2

MAPK2 (h) = MAPK2 (h) (Homo sapiens, UniProt P28482); assay: Kinase inhibition assay: MAPK2; conditions: 30µM Testsubstanz (100 µM ATP); read-out: Hemmung von Kinasen in % MAPK2 (h)
Chain of MAPK2 (h) (P28482 whole entry): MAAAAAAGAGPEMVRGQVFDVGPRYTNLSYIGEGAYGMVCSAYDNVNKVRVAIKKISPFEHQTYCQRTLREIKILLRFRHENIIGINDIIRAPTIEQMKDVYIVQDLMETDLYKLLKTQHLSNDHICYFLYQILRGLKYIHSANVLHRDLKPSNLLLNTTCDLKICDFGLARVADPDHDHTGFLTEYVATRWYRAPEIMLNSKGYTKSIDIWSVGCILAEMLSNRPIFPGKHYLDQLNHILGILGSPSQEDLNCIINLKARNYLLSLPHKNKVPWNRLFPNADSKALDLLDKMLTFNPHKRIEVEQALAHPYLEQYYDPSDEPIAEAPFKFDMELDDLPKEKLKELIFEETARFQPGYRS
Text: as §1, §2

MEK1 (h) = MEK1 (h) (Homo sapiens, UniProt Q02750); assay: Kinase inhibition assay: MEK1 (coupled to MAPK2 assay); conditions: 30µM Testsubstanz (100 µM ATP); read-out: Hemmung von Kinasen in % MEK1 (h)
Chain of MEK1 (h) (Q02750 whole entry): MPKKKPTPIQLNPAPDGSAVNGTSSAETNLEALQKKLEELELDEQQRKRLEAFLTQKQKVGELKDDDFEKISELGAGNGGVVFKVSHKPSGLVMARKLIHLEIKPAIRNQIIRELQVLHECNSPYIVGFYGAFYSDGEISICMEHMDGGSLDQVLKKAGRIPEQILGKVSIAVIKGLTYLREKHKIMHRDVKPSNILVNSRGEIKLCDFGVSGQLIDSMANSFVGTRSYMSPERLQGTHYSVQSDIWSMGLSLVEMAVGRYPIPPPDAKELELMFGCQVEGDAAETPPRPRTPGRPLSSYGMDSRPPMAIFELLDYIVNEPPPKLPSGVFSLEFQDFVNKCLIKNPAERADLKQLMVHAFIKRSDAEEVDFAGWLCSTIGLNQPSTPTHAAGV
Method: as §1, §2
MEK1 (h)(1-5 mU) in einem Endreaktionsvolumen von 25 µl wird mit 50 mM Tris pH 7.5, 0.2 mM EGTA, 0.1 % b-Mercaptoethanol, 0,01 % Brij-35, 1 µM inaktives MAPK2 (m), 10 mM MgAcetat und kaltem ATP inkubiert (Konzentration wie erforderlich). Die Reaktion wird durch Zugabe von MgATB initiiert. Nach 40-minütiger Inkubation bei Raumtemperatur werden […] dieses Inkubationsgemisches dazu verwendet, den oben beschriebenen MAPK2-Assay zu initiieren.

PKA (h) = assay: Kinase inhibition assay (33P-ATP, P30 filter, scintillation counting): PKA; conditions: 30µM Testsubstanz (100 µM ATP); 40 min
PKB (h) = PKB (h) (Homo sapiens, UniProt P31749); assay: Kinase inhibition assay (33P-ATP, P30 filter, scintillation counting): PKB; conditions: 40 min; 30µM Testsubstanz (100 µM ATP); read-out: Hemmung von Kinasen in % PKB (h)
Chain of PKB (h) (P31749 whole entry): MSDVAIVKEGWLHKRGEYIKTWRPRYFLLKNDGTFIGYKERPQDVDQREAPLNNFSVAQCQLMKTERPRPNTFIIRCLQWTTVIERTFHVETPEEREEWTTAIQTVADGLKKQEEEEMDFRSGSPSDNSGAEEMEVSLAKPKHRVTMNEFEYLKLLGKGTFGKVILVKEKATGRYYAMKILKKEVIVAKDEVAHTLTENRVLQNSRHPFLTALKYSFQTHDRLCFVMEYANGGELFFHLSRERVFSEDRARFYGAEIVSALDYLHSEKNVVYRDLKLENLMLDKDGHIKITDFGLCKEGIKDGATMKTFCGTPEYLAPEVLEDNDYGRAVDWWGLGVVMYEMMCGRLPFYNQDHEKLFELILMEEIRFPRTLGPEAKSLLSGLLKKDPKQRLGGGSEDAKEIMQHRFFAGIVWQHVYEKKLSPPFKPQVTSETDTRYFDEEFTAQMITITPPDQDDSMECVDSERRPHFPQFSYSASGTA
Method: as §1, §2
as §3, with “PKBα (h)(5-10mU) wird in” for “c-RAF (ha)(5-10 mU) in”, “µl” for “µl wird”, “mit 8” for “mit 25”, “mM MOPS” for “mM Tris”, “pH 7.0, 0.2” for “pH 7.5,.0.02”, “mM EDTRA, 30 µM GRPRTSSFAEGKK,” for “mM EGTA, 0.66 mg/ml Myelin-Basisprotein,”

ROCKII (h) = assay: Kinase inhibition assay (33P-ATP, P30 filter, scintillation counting): ROCK-II; conditions: 30µM Testsubstanz (100 µM ATP); 40 min
SAPK2a (h) = SAPK2a (h) (Homo sapiens, UniProt Q16539); assay: Kinase inhibition assay (33P-ATP, P30 filter, scintillation counting): SAPK2a; conditions: 30µM Testsubstanz (100 µM ATP); read-out: Hemmung von Kinasen in % SAPK2a (h)
Chain of SAPK2a (h) (Q16539 whole entry): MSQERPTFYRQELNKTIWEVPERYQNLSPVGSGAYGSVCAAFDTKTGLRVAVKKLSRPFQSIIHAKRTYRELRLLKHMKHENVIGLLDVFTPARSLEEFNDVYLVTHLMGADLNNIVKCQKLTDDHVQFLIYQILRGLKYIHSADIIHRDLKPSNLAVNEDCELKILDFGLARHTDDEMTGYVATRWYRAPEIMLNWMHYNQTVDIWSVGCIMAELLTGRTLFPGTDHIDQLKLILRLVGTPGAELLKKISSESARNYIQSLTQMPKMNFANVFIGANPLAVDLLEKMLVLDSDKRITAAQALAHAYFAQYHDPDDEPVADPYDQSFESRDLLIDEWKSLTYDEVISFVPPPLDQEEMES
Method: as §1, §2
as §3, with “SAPK2a (h) wird” for “c-RAF (ha)(5-10 mU)”, “µl” for “µl wird”, “7,5, 0.02” for “7.5,.0.02”, “0.33” for “0.66”

Chain of c-RAF (h) (P04049 whole entry): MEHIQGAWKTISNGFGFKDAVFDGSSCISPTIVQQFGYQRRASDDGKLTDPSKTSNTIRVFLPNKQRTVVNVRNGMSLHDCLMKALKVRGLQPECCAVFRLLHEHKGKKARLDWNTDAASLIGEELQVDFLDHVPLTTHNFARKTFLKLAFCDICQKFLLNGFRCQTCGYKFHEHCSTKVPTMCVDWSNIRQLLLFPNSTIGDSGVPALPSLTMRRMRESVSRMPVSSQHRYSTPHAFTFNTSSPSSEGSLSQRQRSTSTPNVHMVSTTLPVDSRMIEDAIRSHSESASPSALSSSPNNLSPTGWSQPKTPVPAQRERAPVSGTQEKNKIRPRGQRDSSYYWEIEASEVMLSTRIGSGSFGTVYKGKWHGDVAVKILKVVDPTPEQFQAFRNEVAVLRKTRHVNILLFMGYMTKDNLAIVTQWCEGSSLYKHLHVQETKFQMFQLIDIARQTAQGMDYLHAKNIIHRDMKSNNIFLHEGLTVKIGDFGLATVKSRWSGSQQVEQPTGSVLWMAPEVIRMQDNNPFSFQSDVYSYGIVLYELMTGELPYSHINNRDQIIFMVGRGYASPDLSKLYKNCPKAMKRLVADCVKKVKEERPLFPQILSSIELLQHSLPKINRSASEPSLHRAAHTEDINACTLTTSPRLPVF

Structure (SMILES) | inhibition at 30 µM (c-RAF (h)) [%] | inhibition at 30 µM (GSK3β (h)) [%] | inhibition at 30 µM (JNK3 (r)) [%] | inhibition at 30 µM (Lck (h)) [%] | inhibition at 30 µM (MAPK1 (h)) [%] | inhibition at 30 µM (MAPK2 (h)) [%] | inhibition at 30 µM (MEK1 (h)) [%] | Hemmung von Kinasen in % PKA (h) (PKA (h)) [%] | inhibition at 30 µM (PKB (h)) [%] | Hemmung von Kinasen in % ROCKII (h) (ROCKII (h)) [%] | inhibition at 30 µM (SAPK2a (h)) [%]
c1ccc(Sc2ncnc3[nH]cnc23)cc1 [Verbd. 15, 6-Phenylsulfanyl-9H-purin] | 6 | 1 | 0 | 5 | 3 | 13 | 0 | 8 | 0 | 33 | 54
Fc1ccc(Sc2ncnc3[nH]ccc23)cc1 [Verbd. 53, 4-(4-Fluoro-phenylsulfanyl)-7H-pyrrolo[2,3-d]pyrimidin] | 43 | 4 | 5 | 52 | 10 | 2 | 36 | 0 | 0 | 42 | 79
